Measurements published in patent US20140011676A1, “1, 8 -DIAZASPIRO [4.5] DECANE- 2, 4 -DIONE DERIVATIVES USEFUL AS PESTICIDES” (SYNGENTA PARTICIPATIONS AG, priority 2010, published 2014).
Where two headings read alike, the source gives them in different places.

How the values were obtained:
[1] = system: Tetranychus urticae (two-spotted spider mite); assay: whole plant or invertebrate; conditions: foliar, 192 h, read-out: activity (egg, larval and adult mortality) against Tetranychus urticae
[2] = system: Myzus persicae (green peach aphid); conditions: foliar, 144 h, read-out: activity (mortality) against Myzus persicae
[3] = system: Myzus persicae (green peach aphid); assay: Activity against Myzus persicae on cabbage plants, feeding/residual contact activity, spray chamber; format: in vivo; conditions: 144 h, 6 days after treatment
cabbage plants = conditions: in vivo, 6 days, 200 ppm
[4] = system: Thrips tabaci (onion thrips); conditions: foliar, 144 h, read-out: activity (mortality) against Thrips tabaci
[5] = system: Myzus persicae (green peach aphid); assay: Activity against Myzus persicae, mixed population, systemic/feeding activity, curative (pea seedlings); conditions: 144 h, read-out: activity (mortality) against Myzus persicae, systemic

Row | melting point | Structure (SMILES) | mortality at 400 ppm [1] | mortality at 400 ppm [2] | mortality at 200 ppm [3] | damage to cabbage plants (phytotoxicity) (cabbage plants) | mortality at 400 ppm [4] | mortality at 400 ppm [5]
1 | – | CON1CCC2(CC1)C(=O)C(Cl)(c1cc(C)c(C)cc1Cl)C(=O)N2C (stereo not shown) [Compound P1.1, 3-Chloro-3-(2-chloro-4,5-dimethyl-phenyl)-8-methoxy-1-methyl-1,8-diaza-spiro[4.5]decane-2,4-dione] | > 80% | > 80% | – | – | – | –
2 | – | CON1CCC2(CC1)C(=O)C(Cl)(c1cc(Br)c(C)cc1C)C(=O)N2C (stereo not shown) [Compound P1.2] | – | > 80% | ≥ 80% | ≤ 10% | > 80% | –
3 | – | CON1CCC2(CC1)C(=O)C(Cl)(c1c(C)cc(Br)cc1C)C(=O)N2C (stereo not shown) [Compound P1.3] | – | > 80% | ≥ 80% | ≤ 10% | – | > 80%
4 | – | CON1CCC2(CC1)C(=O)C(Cl)(c1c(C)cc(C)cc1C)C(=O)N2C (stereo not shown) [Compound P1.4] | – | > 80% | ≥ 80% | ≤ 10% | > 80% | > 80%
5 | – | CON1CCC2(CC1)C(=O)C(Cl)(c1cc(C)ccc1C)C(=O)N2C (stereo not shown) [Compound P1.5, 3-Chloro-3-(2,5-dimethyl-phenyl)-8-methoxy-1-methyl-1,8-diaza-spiro[4.5]decane-2,4-dione] | – | – | ≥ 80% | ≤ 10% | – | –
6 | – | CON1CCC2(CC1)C(=O)C(Cl)(c1cc(C)c(C)cc1C)C(=O)N2CC1CC1 (stereo not shown) [Compound P1.6] | – | – | ≥ 80% | ≤ 10% | – | –
7 | – | CON1CCC2(CC1)C(=O)C(Cl)(c1c(C)cccc1C)C(=O)N2C (stereo not shown) [Compound P1.7] | – | – | ≥ 80% | ≤ 10% | – | > 80%
8 | – | CON1CCC2(CC1)C(=O)C(Cl)(c1c(C)cc(C)cc1C)C(=O)N2CC1CCCO1 (stereo not shown) [Compound P1.8] | – | – | ≥ 80% | ≤ 10% | – | –
9 | 115 to 117 °C | COc1cc(Cl)cc(C)c1C1(Cl)C(=O)N(C)C2(CCN(OC)CC2)C1=O (stereo not shown) [Compound P1.10] | – | – | – | – | – | –
10 | – | CCc1cc(Cl)cc(C)c1C1(Cl)C(=O)N(C)C2(CCN(OC)CC2)C1=O (stereo not shown) [Compound P1.11] | – | > 80% | ≥ 80% | ≤ 10% | – | –
11 | – | CON1CCC2(CC1)C(=O)C(Cl)(c1c(C)ccc(-c3ccc(Cl)cc3)c1C)C(=O)N2C (stereo not shown) [Compound P1.12] | – | > 80% | ≥ 80% | ≤ 10% | – | –
12 | – | CON1CCC2(CC1)C(=O)C(c1c(C)cc(C)cc1C)([N+](=O)[O-])C(=O)N2C (stereo not shown) [Compound P1.13, 8-Methoxy-1-methyl-3-nitro-3-(2,4,6-trimethyl-phenyl)-1,8-diaza-spiro[4.5]decane-2,4-dione] | – | > 80% | ≥ 80% | ≤ 10% | – | –
13 | – | COCCN1C(=O)C(Cl)(c2c(C)cc(Cl)cc2C)C(=O)C12CCN(OC)CC2 (stereo not shown) [Compound P1.14] | – | > 80% | ≥ 80% | ≤ 10% | – | –
